Assay results from patent US20210154281A1, “CELL-BASED CANCER VACCINES AND CANCER THERAPIES” (Massachusetts Institute of Technology, priority 2019, published 2021).

Assays:
[1] = Cell viability (survival) assay with CellTiter-Glo, 48 hours; type: cell-based, mouse; conditions: mouse, B16F10 melanoma tumor cells, 48 hours, normalized to DMSO-treated control cells
Description: For assays of survival, 15,000 cells were plated per well in a 96-well plate in 100 μl media with 5 replicates per condition. Wells along the four edges of the plate were not used. Following cell attachment, the indicated drugs were added in an equal volume of media, and incubated for an additional 48 hours. The media was then removed and replaced with 100 ul of fresh media at room temperature. Following a 30 minute incubation at room temperature, 50 μl of CellTiter-Glo reagent was added, followed by 2 minutes of gentle mixing. The plate was incubated at room temperature for an additional 10 minutes. 100 μl of supernatant was transferred to a 96-well white opaque plate and luminescence was read on a Tecan microplate reader. Values were normalized to those of DMSO-treated control cells.

B16-Ova tumors [2] = assay: Immunophenotyping of intra-tumoral DC by flow cytometry; type: in vivo, mice; conditions: combined with checkpoint blockade; after 2 doses of vaccine or etoposide and 3 doses of checkpoint blockade
Description: Phenotypic characterization of immune cell populations was performed by flow cytometry. Briefly, tumors were harvested and mashed through a […] filter. Collected cells were washed in FACS buffer (PBS containing 5 mM EDTA and 1% BSA), resuspended, and counted. Five million cells from each sample were stained with fluorophore-conjugated antibodies on ice for 30 min, co-stained with Aqua, washed, resuspended in 450 μl, supplemented with 50 μl of CountBright absolute counting beads, and analyzed on a BD LSR Fortessa flow cytometer. DCs were scored as CD45+Ly6CCD24+MHCII+F480−(CD11b+ or CD103+) cells using the gating strategy described in Broz M L, et al., Cancer Cell, 8; 26(6):938 (2014).
To test whether the efficacy of the tumor cell vaccine and checkpoint combination treatment for an anti-tumor immune response depends on DCs that can cross-present tumor antigens, the numbers of CD11b^+C103^−DC2 cells and CD11b^−CD103^+DC1 cells were enumerated by immunophenotyping and flow cytometry. […] As before, mice bearing flank B16-Ova tumors were treated with saline or the tumor cell vaccine intra-tumorally, in the presence or absence of systemic checkpoint blockade (FIG. 5A), and analyzed. […]

B16-Ova tumors [3] = assay: Flank B16-Ova tumors in mice: tumor size, survival, re-challenge; type: in vivo, C57BL/6J WT mice; conditions: intratumoral injection alone, three weekly doses
Description: Cross-sectional area of tumors was measured in mm^2 using calipers every 2-3 days. In tumor re-challenge experiments, naive mice controls or mice who had complete tumor regression and remained tumor free for at least 60 days were subcutaneously injected in the left flank (contra-lateral to the initial tumor) with 0.1×10^6 B16-Ova cells, and tumor development was monitored for another 60 days.

BMDCs = assay: Viability of BMDCs upon exposure to etoposide
B16-Ova tumors [4] = assay: Circulating H2-Kb/[…]-tetramer positive CD8+ T-cells in mice bearing B16-Ova tumors; type: in vivo, C57BL/6J WT mice; conditions: bled after the second intra-tumoral dose
Description: Briefly, 50 μl of whole blood was collected by retro-orbital bleeding, centrifuged at 250×g for 5 min, followed by 3 rounds of RBC lysis in 200 ul of ACK buffer. Cells were then washed once in Tetramer stain buffer (PBS containing 5 mM EDTA, 1% BSA and 50 nM Dasatinib), and stained with PE-conjugated Tetramer for 40 min at RT, followed by co-staining with anti-CD8 for 10 min at 4° C. Cells were then stained with DAPI, washed and re-suspended in tetramer stain buffer for flow cytometry analysis.

SMILES	viability at 48 h, 10 µM [1] [%]	viability at 48 h, 50 µM [1] [%]	number of CD103+DC1 in tumors (B16-Ova tumors [2])	tumor growth (B16-Ova tumors [3])	viability of BMDCs (BMDCs)	H2-Kb-SIINFEKL (SEQ ID NO: 1)-specific T-cells (%) MEAN (B16-Ova tumors [4]) [%]
O=C1c2c(O)ccc(O)c2C(=O)c2c(NCCNCCO)ccc(NCCNCCO)c21 [Mito, mitoxantrone]	0.0743	0.000452				
COc1cc([C@@H]2c3cc4c(cc3[C@@H](O[C@@H]3O[C@@H]5CO[C@@H](C)O[C@H]5[C@H](O)[C@H]3O)[C@H]3COC(=O)[C@H]23)OCO4)cc(OC)c1O [Etop, etoposide]	34.9	36.1	did not enhance numbers of CD103+DC1	no effect on tumor growth	significantly reduced	0.29
